Where a name gives a salt, the structure may show the parent alone. Read-outs that look alike come from different tables or passages of the source.
What was measured:
Serotonin (5HT) reuptake = target: T1, Serotonin (5HT) reuptake (Rattus norvegicus, UniProt P31652); assay: Serotonin (5HT) reuptake inhibition in rat brain synaptosomes (P2 fraction); assay type: biochemical; conditions: for inhibition at 10 µM: read-out: Serotonin reuptake, % inhibition [10 μM]
T1 construct: synaptosomes are freshly isolated from areas of rat brain; from tissue; host or cells: rat brain synaptosomes (P2 fraction)
T1 sequence (P31652 whole entry): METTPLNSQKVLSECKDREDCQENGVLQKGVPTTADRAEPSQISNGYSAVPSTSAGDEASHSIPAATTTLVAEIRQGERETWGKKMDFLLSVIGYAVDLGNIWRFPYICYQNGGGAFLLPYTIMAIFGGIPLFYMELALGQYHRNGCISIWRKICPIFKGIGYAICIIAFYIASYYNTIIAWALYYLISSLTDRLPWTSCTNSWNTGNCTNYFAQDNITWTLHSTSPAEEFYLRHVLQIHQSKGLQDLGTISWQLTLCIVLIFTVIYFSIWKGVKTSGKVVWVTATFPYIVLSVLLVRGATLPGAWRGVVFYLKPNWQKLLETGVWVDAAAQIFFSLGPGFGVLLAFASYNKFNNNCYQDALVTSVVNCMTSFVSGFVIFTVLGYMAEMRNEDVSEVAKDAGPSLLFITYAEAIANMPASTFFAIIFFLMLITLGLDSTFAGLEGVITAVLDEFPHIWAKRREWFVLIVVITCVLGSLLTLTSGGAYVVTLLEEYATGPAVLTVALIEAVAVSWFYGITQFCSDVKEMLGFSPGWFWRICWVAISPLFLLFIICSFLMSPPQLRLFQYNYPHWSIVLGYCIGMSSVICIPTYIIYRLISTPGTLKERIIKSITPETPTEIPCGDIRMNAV
Procedure, shortened: (§1)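 Freshly isolated rat brain synaptosomes (P2 fraction, Gray–Whittaker method) used for uptake; for NA uptake the particles came from hypothalamus of male rats.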

mouse = assay: In vivo studies of analgesia: tail-flick test in the mouse; conditions: iv; for % maximum possible antinociceptive effect at 21.5 mg/kg: dose 21.5 mg/kg (i.v.); for % maximum possible antinociceptive effect at 10 mg/kg: dose 10 mg/kg (i.v.)
Excerpt: In vivo Studies of Analgesia: Tail-flick Test in the Mouse
The mice were each placed individually into a test cage and the base of the tail was exposed to the focused heat ray of an electric lamp (tail-flick type 50/08/1.bc, Labtec, Dr. Hess). The intensity of the lamp was adjusted so that the time from switching on of the lamp to the sudden twitching away of the tail (latency of pain) in untreated mice was from 3 to 5 seconds. Before administration of the solutions comprising the compound according to the invention, or of the particular comparison solutions, the mice were pre-tested twice in the course of five minutes and the mean of these measurements was calculated as the pre-test mean.
The solutions of the compound of the general formula I according to the invention and the comparison solutions were then administered intravenously.
Pain measurement was carried out in each case 10, 20, 40 and 60 minutes following the intravenous administration. The analgesic activity was determined as the increase in the latency of pain (% of the maximum possible antinociceptive effect) according to the following formula: [(T1−T0)/(T2−T0)]×100 where time T0 is the latency before administration, time T1 is the latency after administration of the active ingredient combination and time T2 is the maximum exposure time (12 seconds).
The in-depth study of analgesic activity was carried out in the tail-flick test in the mouse, as described above.

[1] = target: T2, Noradrenaline (NA) reuptake (Rattus norvegicus, UniProt Q63380); assay: Noradrenaline (NA) reuptake inhibition in rat brain synaptosomes (hypothalamus, P2 fraction); assay type: biochemical
T2 construct: synaptosomes are freshly isolated from areas of rat brain; from tissue; host or cells: rat hypothalamus synaptosomes (P2 fraction)
T2 sequence (Q63380 1-617): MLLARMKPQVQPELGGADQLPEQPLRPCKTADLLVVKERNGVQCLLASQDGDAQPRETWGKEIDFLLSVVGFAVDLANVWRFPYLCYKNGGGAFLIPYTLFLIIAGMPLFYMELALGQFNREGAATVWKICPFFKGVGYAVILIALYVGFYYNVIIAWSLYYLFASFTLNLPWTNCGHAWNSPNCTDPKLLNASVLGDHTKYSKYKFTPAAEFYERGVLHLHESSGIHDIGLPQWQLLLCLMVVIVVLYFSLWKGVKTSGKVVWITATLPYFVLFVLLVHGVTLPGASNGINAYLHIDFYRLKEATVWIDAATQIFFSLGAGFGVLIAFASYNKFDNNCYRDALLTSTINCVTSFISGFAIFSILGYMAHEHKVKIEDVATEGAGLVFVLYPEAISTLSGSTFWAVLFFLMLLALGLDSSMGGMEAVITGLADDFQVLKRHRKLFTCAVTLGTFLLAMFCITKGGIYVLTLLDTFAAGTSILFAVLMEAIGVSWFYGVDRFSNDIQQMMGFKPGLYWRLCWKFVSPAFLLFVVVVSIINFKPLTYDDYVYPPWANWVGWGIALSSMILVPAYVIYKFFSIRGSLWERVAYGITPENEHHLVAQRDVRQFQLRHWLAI
Procedure, shortened: as §1

human μ-opiate receptor = human μ-opiate receptor (Homo sapiens, UniProt P35372); assay: Affinity for the human μ-opiate receptor ([3H]-naloxone displacement, SPA, CHO-K1 membrane preparation); assay type: binding; conditions: for inhibition at 1 µM: read-out: μ-Opioid receptor, % inhibition [1 μM]; for Ki: read-out: μ-Opioid receptor, Ki
Chain of human μ-opiate receptor (P35372 whole entry): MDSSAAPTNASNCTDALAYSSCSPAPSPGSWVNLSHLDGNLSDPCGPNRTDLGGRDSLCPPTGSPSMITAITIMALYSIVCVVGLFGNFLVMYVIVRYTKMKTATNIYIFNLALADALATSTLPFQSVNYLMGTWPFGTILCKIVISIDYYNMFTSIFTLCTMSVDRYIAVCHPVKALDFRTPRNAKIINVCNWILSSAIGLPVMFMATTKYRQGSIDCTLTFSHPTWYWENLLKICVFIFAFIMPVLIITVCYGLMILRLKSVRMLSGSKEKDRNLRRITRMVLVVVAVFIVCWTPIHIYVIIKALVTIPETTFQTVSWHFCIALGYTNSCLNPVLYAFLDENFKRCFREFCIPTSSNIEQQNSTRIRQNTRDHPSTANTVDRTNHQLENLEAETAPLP

[2] = read-out: NA reuptake, % inhibition [10 μM]
[3] = 1 μM test substance, inhibition of specific [3H]-naloxone binding
[4] = read-out: Na reuptake, % inhibition [10 μM]

SMILES	inhibition at 10 µM (Serotonin (5HT) reuptake) [%]	% maximum possible antinociceptive effect at 21.5 mg/kg (mouse; read-out: Activity % MPE) [%]	inhibition at 10 µM [1, 2] [%]	inhibition at 1 µM (human μ-opiate receptor; [3]) [%]	Ki (human μ-opiate receptor) [nM]	Ki (Serotonin (5HT) reuptake) [nM]	ED50 (mouse; head prints (4.64-21.5)) [mg/kg]	Ki [1] [nM]	% maximum possible antinociceptive effect at 1 mg/kg (mouse; dose 1 mg/kg (i.v.), read-out: Activity % MPE) [%]	inhibition at 10 µM [1, 4] [%]	inhibition at 1 µM (human μ-opiate receptor) [%]	% maximum possible antinociceptive effect at 10 mg/kg (mouse; read-out: Activity % MPE) [%]	melting point [°C]
CN(C)C(c1ccccc1)C1CCC(NCc2ccc(F)cc2)CC1 (stereo not drawn) [compound 91, 4-((dimethylamino)(phenyl)methyl)-N-(4-fluorobenzyl)cyclohexanamine hydrochloride]	76	90	93	90	8.1	–	–	–	–	–	–	–	–
CN(C)C(c1ccccc1)C1CCC(NC(=O)Nc2ccccc2)CC1.Cl (stereo not drawn) [compound 78, 1-(4-((dimethylamino)(phenyl)methyl)cyclohexyl)-3-phenylurea hydrochloride]	87	–	98	91	54	160	8.94	290	–	–	–	–	–
CN(C)C(c1ccccc1)C1CCC(NCc2ccccc2)CC1 (stereo not drawn) [compound 86, N-benzyl-4-((dimethylamino)(phenyl)methyl)cyclohexanamine hydrochloride]	88	100	95	98	3.8	–	–	–	–	–	–	–	–
CC(=O)N(CCCc1ccccc1)C1CCC(C(c2ccccc2)N(C)C)CC1 (stereo not drawn) [compound 95, N-(4-((dimethylamino)(phenyl)methyl)cyclohexyl)-N-(3-phenylpropyl)acetamide hydrochloride]	66	–	–	–	2.5	–	–	–	100	80	95	–	–
CN(C)C(c1ccccc1)[C@H]1CC[C@H](CCc2ccccc2)CC1 (relative stereo) [compound 146, trans-N,N-dimethyl(4-phenethylcyclohexyl)(phenyl)methanamine hydrochloride]	92	–	94	97	–	150	–	600	–	–	–	21	–
CN(C)C(c1cccs1)C1CCC(=NO)CC1 (stereo not drawn)	–	–	–	–	–	–	–	–	–	–	–	–	118 to 121
CC(=O)N(CCCCc1ccccc1)C1CCC(C(c2ccccc2)N(C)C)CC1 (stereo not drawn) [compound 98, N-(4-((dimethylamino)(phenyl)methyl)cyclohexyl)-N-(4-phenylbutyl)-acetamide hydrochloride]	74	–	–	–	–	630	–	700	–	95	104	100	–
CCCC(=O)N(Cc1ccccc1)C1CCC(C(c2ccccc2)N(C)C)CC1 (stereo not drawn) [compound 102, N-benzyl-N-(4-((dimethylamino)(phenyl)methyl)cyclohexyl)butyramide hydrochloride]	85	–	–	–	1.5	450	–	130	–	92	94	82	–
CN(C)C(c1ccccc1)C1CCC(NCCCCc2ccccc2)CC1 (stereo not drawn) [compound 87, 4-((dimethylamino)(phenyl)methyl)-N-(4-phenylbutyl)cyclohexanamine hydrochloride]	95	–	106	85	3.7	–	–	–	–	–	–	39	–
CN(C)C(c1ccccc1)C1CCC(NC(=O)NC2CCCCC2)CC1 (stereo not drawn) [compound 80, 1-cyclohexyl-3-(4-((dimethylamino)(phenyl)methyl)cyclohexyl)urea]	97	–	97	95	20	250	–	490	–	–	–	59	–
CN(C)C(c1ccccc1)C1CCC(O)(Cc2ccc(F)cc2)CC1 (stereo not drawn) [compound 148, 4-((dimethylamino)(phenyl)methyl)-1-(4-fluorobenzyl)cyclohexanol hydrochloride]	90	–	97	91	–	370	–	–	–	–	–	40	–
CC(Cc1c[nH]c2ccccc12)NC1CCC(C(c2ccccc2)N(C)C)CC1 (stereo not drawn) [compound 88, N-(1-(1H-indol-3-yl)propan-2-yl)-4-((dimethylamino)(phenyl)methyl)-cyclohexanamine hydrochloride]	88	90	84	99	2.4	–	–	–	–	–	–	–	–
CN(C)C(c1ccccc1)C1CCC(=NO)CC1 (stereo not drawn)	–	–	–	–	–	–	–	–	–	–	–	–	110 to 115
CN(C)C(c1ccccc1)C1CCC(NC(=O)NCc2ccccc2)CC1 (stereo not drawn) [compound 79, 1-benzyl-3-(4-((dimethylamino)(phenyl)methyl)cyclohexyl)urea]	97	–	96	103	8.3	91	–	120	–	–	–	76	–
CN(C)C(c1ccccc1)C1CCC(NC(=O)Nc2ccc(F)cc2F)CC1 (stereo not drawn) [compound 74, 1-(2,4-difluorophenyl)-3-(4-((dimethylamino)(phenyl)methyl)cyclohexyl)urea hydrochloride]	86	–	93	88	160	120	–	220	–	–	–	–	–
CCOC(=O)C=C1CCC(C(c2ccc(F)cc2)N(C)C)CC1 (stereo not drawn) [compound 126, {4-[dimethylamino-(4-fluorophenyl)-methyl]-cyclohexylidene}-acetic acid ethyl ester]	86	–	81	35	–	–	–	–	–	–	–	–	–

From US8058475B2, “Substituted cyclohexylmethyl compounds” (Gruenenthal GmbH, priority 2005, dated 2011)
